The values below come from PubChem BioAssay AID489032 (Sanford-Burnham Center for Chemical Genomics, 2010).

Calls of active or inactive are those of the source. How the calls were made is not given here.

In the experiment the test system is UPR adaptive arm reporter cells, luciferase luminescence. The experiment is described as follows: activators of adaptive UPR signalling, dose response, cell-based, luciferase luminescence (AID 489032).
For orientation: EC50 means the concentration giving half of the maximal effect. In the case of `CN(C)CCCNC(=O)c1ccc(-c2nc(-c3ccc(Cl)cc3)cs2)cc1`, the EC50 is > 80 µM (inactive).
With `COc1ccc2[nH]c3c(c2c1)CCN1C(=O)C(CC(=O)NC/C=C(\C)CCC=C(C)C)C[C@H](C(=O)N(C(C)C)C(C)C)[C@@]31C` (stereo partly drawn) the figure was 60.1 µM (inactive); with `O=C(Nc1ccc(C(F)(F)F)cc1)c1cc(-c2cccnc2)nc2ccc(Br)cc12`, 15.6 µM; with `Oc1ccc(Br)cc1/C=N/Nc1ccccn1`, > 80 µM (inactive).
`O=C(NCCCn1ccnc1)c1nn2c(C(F)(F)F)cc(-c3ccc(Br)cc3)nc2c1Cl`: the EC50 is 21.6 µM (inactive).
With `CCC1CCc2c(sc3nc(SCC(=O)NCc4ccco4)n(-c4ccccc4)c(=O)c23)C1` (stereo not drawn) the figure was > 80 µM (inactive); with `COc1ccc(-c2coc3cc4oc(=O)cc(-c5ccccc5)c4cc23)cc1F`, 43.3 µM (inactive).
With `COc1ccc(/C=N/Nc2cc(C)nc3ccc(Br)cc23)cc1` the figure was > 80 µM (inactive); with `CC1=CC(C)[C@H](/C=N/n2c(=O)[nH]c3c([nH]c4ccc(C)cc43)c2=O)C(C)C1` (stereo partly drawn), > 80 µM (inactive); with `Cc1ccc(Nc2nc(NCCO)c3ccccc3n2)cc1C`, > 80 µM (inactive).
The same measure for `O=C(c1ccc2c(c1)[nH]c(=S)n1c3ccccc3nc21)N1CCN(c2cccc(Cl)c2)CC1`: > 80 µM (inactive); for `COc1ccc(-c2cc(C(F)F)n3ncc(C(=O)N4CCc5ccccc5C4)c3n2)cc1`: 28.6 µM (inactive); for `O=C(C[C@@H]1C/C=C/CC[C@H](Cc2ccc(F)cc2)C(=O)OC[C@@H](Cc2ccccc2)NC1=O)N[C@H](CO)Cc1ccccc1`: 18.8 µM.
Regarding `CC(=O)Oc1ccc(-c2ccc(C(=O)OCC(=O)N(C)CC(=O)Nc3ccccc3Cl)cc2)cc1`, the EC50 was 2.46 µM.
The same measure for `Cc1ccc(Cc2cnc(NC(=O)/C(C#N)=C/c3ccc(-c4ccc([N+](=O)[O-])cc4)o3)s2)cc1`: 9.69 µM; for `Cc1nc2ccccc2n1-c1nc(-c2ccco2)cc(C(F)(F)F)n1`: > 80 µM (inactive); for `Cc1ccc(-c2cc(C(F)F)n3ncc(C(=O)N4CCc5ccccc54)c3n2)cc1`: 27.2 µM (inactive).
As to `Cn1ncc(N=Cc2c(O)ccc3ccccc23)c1C(=O)Nc1cccc(Cl)c1`, the EC50 is > 80 µM (inactive).
With `CC1C/C(=N/Nc2nc3ccccc3[nH]2)CC(C)(C)C1` (stereo not drawn) the figure was > 80 µM (inactive).
With `O=C(C[n+]1ccc(-c2cc(C(=O)Nc3cccc(C(F)(F)F)c3)c3ccccc3n2)cc1)c1cccc([N+](=O)[O-])c1`, the EC50 is > 80 µM (inactive).
With `CC(C)(C)C(=O)NC(=S)NNC(=O)C(c1ccccc1)c1ccccc1` the figure was 27 µM (inactive); with `O=C(CSc1nc2ccc(Nc3nc(N4CCOCC4)nc(N4CCOCC4)n3)cc2s1)Nc1ccccc1F`, 11.7 µM.
For the molecule `CCOc1ccc(/C=C/C(O)=C2/C(=O)NC3(C)CC2c2ccccc2O3)cc1OC` (stereo not drawn), the EC50 was > 80 µM (inactive).
Regarding `CCOC(=O)c1c(-c2ccc(C)o2)csc1NC(=O)COC(=O)c1ccc(NC(N)=O)cc1`, the EC50 was > 80 µM (inactive).
With `O=[N+]([O-])c1cc(-c2ccc(/C=N/c3nc4ccccn4c3-c3ccco3)o2)ccc1Cl` the figure was > 80 µM (inactive).
With `COc1ccc(-c2ccc3c(c2)S(=O)(=O)c2cccc(C(=O)NCCOc4ccccc4Cl)c2C3=O)cc1OC` the figure was > 80 µM (inactive); with `CCOc1cc(/C=C2/C(=N)N3C=CSC3=NC2=O)ccc1OCCCOc1ccccc1C`, > 80 µM (inactive).
On to `COc1ccc(CCn2c(C3CCCCC3)nc3c(c(=O)c4ccccc4n3C)c2=O)cc1`, for which the EC50 is > 80 µM (inactive).
The same measure for `O=c1cc(CN2CCN(c3ccc(F)cc3)CC2)c2cc3c(cc2o1)CCCC3`: 17.6 µM; for `CC1=C(/C=C/C(C)=C/C=C/C(C)=C/C(=O)Nc2ccc(O)cc2)C(C)(C)CCC1`: > 80 µM (inactive).
In the case of `CCC[C@@H](CN[C@@H](CNC)[C@H](C)CC)NCC1CCC(C(C)(C)C)CC1` (stereo partly drawn), the EC50 was > 80 µM (inactive).
Consider `Cc1cc(C)c2sc(N(CCCN(C)C)C(=O)c3ccc(S(=O)(=O)N4CCCc5ccccc54)cc3)nc2c1`, for which the EC50 was > 80 µM (inactive).
The same measure for `Cc1cccc2c1Sc1ccc(Cl)cc1CC2N1CCNCC1` (stereo not drawn): > 80 µM (inactive); for `NS(=O)(=O)c1ccc(NC(=O)COC(=O)c2cn(-c3ccccc3)nc2-c2ccc(F)cc2)cc1`: > 80 µM (inactive); for `CCOC(=O)c1c(NC(C)=O)sc2c(OCC(O)CNC(C)(C)C)c(Br)ccc12` (stereo not drawn): > 80 µM (inactive).
For `CC1CCc2c(sc(NC(=O)CCc3nc4ccccc4c(=O)[nH]3)c2C#N)C1` (stereo not drawn), the EC50 is 30.3 µM (inactive).
For the molecule `CCOC(=O)c1nnc(-c2ccc(C)cc2)nc1Sc1ccccc1Cl`, the EC50 is > 80 µM (inactive).
With `CCOc1cc(CNC(C)(C)CO)cc(Br)c1OCc1ccc(Cl)cc1Cl` the figure was 20 µM; with `NS(=O)(=O)c1ccc(N/N=C2/CCCCC2C2CCCCC2)c([N+](=O)[O-])c1` (stereo not drawn), > 80 µM (inactive).
With `COc1cc([N+](=O)[O-])cc(/C=N/NC(=O)c2ccc(NC(=O)c3ccc(C)cc3)cc2)c1O` the figure was > 80 µM (inactive).
With `Clc1ccc(-c2ccc(/C=N/Nc3nncc(-c4ccccc4)n3)o2)cc1` the figure was > 80 µM (inactive); with `COc1ccc(C(=O)Oc2cc3c4c(c2)C(C)=CC(C)(C)N4C(=O)C3=O)cc1OC`, 25.4 µM (inactive); with `CCOC(=O)c1c2ccc(OCC(=O)N/N=C/c3ccc(C)cc3)cc2n2ccccc12`, > 80 µM (inactive).
Consider `Cc1cc(NC(=O)c2cc(-c3ccncc3)nc3ccccc23)ccc1Br`, for which the EC50 was 27.8 µM (inactive).
The same measure for `COc1cc(/C=C(/C#N)c2nc3ccccc3[nH]2)ccc1OCC(=O)Nc1ccccc1C`: > 80 µM (inactive); for `COc1cc(/C=N/NC(N)=O)c(Br)cc1OCC(=O)Nc1ccccc1C`: > 80 µM (inactive).
In the case of `N=c1n(CC(=O)c2ccc([N+](=O)[O-])cc2)c2ccccc2n1Cc1ccc(Cl)cc1`, the EC50 is > 80 µM (inactive).
For the molecule `CC(C)(C)c1cc(-c2nc(N)nc(N)n2)c(O)c(C(C)(C)C)c1`, the EC50 is 38.8 µM (inactive).
With `CCOc1ccc(-c2nnc(SCC(=O)Nc3ccc4c(c3)c3ccccc3n4CC)n2N)cc1` the figure was > 80 µM (inactive); with `CC1CCN(Cc2c(C(=O)N/N=C/c3ccc(C(C)(C)C)cc3)nnn2-c2nonc2N)CC1`, > 80 µM (inactive).
With `CCc1ccc2nc(N(CCCN(C)C)C(=O)c3ccc(S(=O)(=O)N4CCc5ccccc5C4)cc3)sc2c1` the figure was > 80 µM (inactive).
With `O=C1NC(=O)N(Cc2ccc(F)cc2)C(=O)/C1=C/c1cccs1` the figure was > 80 µM (inactive).
As to `COc1cc(SC#N)ccc1N=Cc1c(C)[nH]n(-c2ccc(C)c(C)c2)c1=O`, the EC50 was > 80 µM (inactive).
Regarding `CN(C)S(=O)(=O)c1ccc(N2CCCC2)c(C(=O)Nc2nc3ccccc3s2)c1`, the EC50 was 15.7 µM.
The same measure for `COc1cccc(/C=N/Nc2ccc([N+](=O)[O-])cn2)c1O`: > 80 µM (inactive); for `CCOC(=O)c1c(NC(=O)/C=C/C(=O)O)sc(C)c1-c1ccc(C(C)(C)C)cc1`: 25.6 µM (inactive).
Regarding `CCc1ccc2[nH]c3nc(SCC(=O)NNC(=O)c4ccc(C(C)(C)C)cc4)nnc3c2c1`, the EC50 was 32.3 µM (inactive).
Consider `Cn1nc(C(F)(F)F)c(/C=N/OC(=O)c2ccccc2)c1SCc1ccc(Cl)cc1`, for which the EC50 was 35.5 µM (inactive).
With `CCC(C)(C)C1CCC2(CC1)NC(=O)N(CC(=O)N1CCN(S(=O)(=O)c3cc(C)ccc3C)CC1)C2=O` (stereo not drawn) the figure was 27.2 µM (inactive); with `O=C1NC(=O)C(=Cc2cn(CCOc3ccc4c(c3)OCO4)c3ccccc23)C(=O)N1`, 31.2 µM (inactive); with `C=C(C)[C@@]12OC3(c4ccccc4)O[C@@H]1C1[C@@H]4O[C@]4(CO)[C@@H](O)[C@]4(O)C(=O)C(C)=C[C@H]4[C@@]1(O3)[C@H](C)[C@H]2OC(=O)/C=C/C=C/c1ccccc1` (stereo partly drawn), 39.1 µM (inactive).
With `CCCCOc1ccccc1NC(=O)Cn1c(-c2nonc2N)nc2ccccc21` the figure was 22 µM (inactive); with `Cc1cc(N2CCN(c3ccc([N+](=O)[O-])c4cccnc34)CC2)c2ccccc2n1`, 21.4 µM (inactive).
With `Cc1sc(NC(=O)c2cc(-c3ccc(Cl)cc3)nc3ccccc23)c(C(N)=O)c1C` the figure was 23.9 µM (inactive); with `Cc1ccc2c(c1)c(N=NC(N)=S)c(O)n2Cc1ccccc1`, 61.8 µM (inactive).
For the molecule `CCc1ccccc1NC(=O)C(CC)Sc1nc2cc3c(cc2c(=O)n1Cc1ccco1)OCO3` (stereo not drawn), the EC50 was 14.6 µM.
The same measure for `Cc1ccnc(N/C=C(\C#N)c2nc(-c3cccc(Br)c3)cs2)c1`: 20.7 µM (inactive); for `Cc1nc2cc(NC(=O)CSc3nc4c(C)cccc4cc3C#N)ccc2s1`: > 80 µM (inactive).
The same measure for `C#CCn1c(=NC(=O)c2ccc(Cl)s2)sc2cccc(OC)c21`: > 80 µM (inactive).
Consider `CC1CN(S(=O)(=O)c2ccc(C(=O)Nc3nc(-c4cc5ccccc5o4)cs3)cc2)CC(C)O1` (stereo not drawn), for which the EC50 was > 80 µM (inactive).
The same measure for `Cc1c(C(=O)Nc2nccs2)oc2ccc(Br)cc12`: > 80 µM (inactive); for `O=C(Nc1ccc(O)c(-c2nc3ccccc3s2)c1)c1cc(=O)c2ccccc2o1`: > 80 µM (inactive); for `COc1ccc(-c2csc3nc(-c4ccc(C)cc4)oc(=O)c23)cc1OC`: > 80 µM (inactive).
As for `CC(C)c1cccc(-c2ccc3c(c2)S(=O)(=O)c2cccc(C(=O)NCc4ccccc4Cl)c2C3=O)c1`, the EC50 is 38.4 µM (inactive).
With `Cc1ccc(Cc2cnc(NC(=O)/C(C#N)=C/c3ccc(-c4cccc([N+](=O)[O-])c4)o3)s2)cc1` the figure was 18.1 µM.
The same measure for `C/C(=N/NC(=O)c1ccc(C)s1)c1cccc(NC(=O)COc2ccc(Cl)cc2C)c1`: 72.4 µM (inactive).
With `Cc1ccc(-c2ccnc(-c3ccc(O)cc3)n2)cc1` the figure was 63.8 µM (inactive); with `O=[N+]([O-])c1ccc(Cl)c(-c2ccc(/C=N/c3c(-c4ccco4)nc4ccccn34)o2)c1`, 39.3 µM (inactive).
